Experimental findings from ChEMBL document CHEMBL5257124, “Design, synthesis and biological evaluation of novel indole-piperazine derivatives as antibacterial agents” (Bioorg Med Chem Lett, 2023) are described below.

Molecules are shown by their SMILES. In brackets after ≈: the same amount, converted by molar mass. Activity calls are given as the source filed them. The rule behind the calls is not given here. Some results are limits rather than exact numbers.

The target in one data set is Histone deacetylase 1 (Homo sapiens, UniProt Q13547). Nature of the data set: Inhibition of full length C-terminal His/FLAG tagged human recombinant HDAC1 (1 to 482 residues) expressed in baculovirus-infected Sf9 cells using RHK-K(Ac)-AMC as substrate incubated for 2 hrs.
In data set [1] the test system is Staphylococcus aureus. Put plainly: Antibacterial activity against methicillin resistant Staphylococcus aureus assessed as reduction in bacterial growth at 8 times MIC measured at 12 hrs by time kill assay. In kind it is functional. Further details: scale not given: the % may be the effect or the level left.
In data set [2] the test system is Staphylococcus aureus. Put plainly: Antibacterial activity against Staphylococcus aureus ATCC 25923 assessed as reduction in bacterial growth. In kind it is functional.
Data set [3] concerns Staphylococcus aureus. Nature of the data set: Antibacterial activity against methicillin resistant Staphylococcus aureus ATCC 33591 assessed as reduction in bacterial growth. In kind it is functional.
In data set [4] the test system is Staphylococcus aureus. Put plainly: Bactericidal activity against methicillin resistant Staphylococcus aureus ATCC 33591 assessed as reduction in bacterial growth. Format: functional.
The subject of data set [5] is Staphylococcus aureus. Put plainly: Antibacterial activity against methicillin resistant Staphylococcus aureus assessed as reduction in bacterial growth at 1 microg/ml measured for 2 hrs. Format: functional. The following applies: dose 1 µg/ml.
For data set [6], the system named is Staphylococcus aureus. Nature of the data set: Antibacterial activity against methicillin resistant Staphylococcus aureus assessed as reduction in bacterial growth at 0.5 microg/ml measured for 2 hrs. The following applies: dose 0.5 µg/ml. In kind it is functional.
Data set [7] concerns Escherichia coli. Nature of the data set: Antibacterial activity against Escherichia coli ATCC 25922 assessed as reduction in bacterial growth. In kind it is functional.
Data set [8] deals with Staphylococcus aureus. Put plainly: Antibacterial activity against methicillin resistant Staphylococcus aureus assessed as reduction in bacterial growth at 8 times MIC measured at 24 hrs by time kill assay. Format: functional, organism-based.
The test system of data set [9] is Staphylococcus aureus. Nature of the data set: Bactericidal activity against Staphylococcus aureus ATCC 25923 assessed as reduction in bacterial growth. Format: functional.
Data set [10] has as its system Escherichia coli. Put plainly: Bactericidal activity against Escherichia coli ATCC 25922 assessed as reduction in bacterial growth. Format: functional.
The test system of data set [11] is Staphylococcus aureus. Nature of the data set: Antibacterial activity against methicillin resistant Staphylococcus aureus assessed as reduction in bacterial growth at 1 times MIC by time kill assay. Format: functional, organism-based.
Data set [12] deals with Staphylococcus aureus. Nature of the data set: Antibacterial activity against methicillin resistant Staphylococcus aureus assessed as reduction in bacterial growth at 2 microg/ml measured for 2 hrs. In kind it is functional. As to conditions: dose 2 µg/ml.
For a further data set, the system named is Bacillus cereus. Put plainly: Antibacterial activity against Bacillus cereus assessed as reduction in bacterial growth. Format: functional.
Data set [13] relates to Staphylococcus aureus. Put plainly: Antibacterial activity against methicillin resistant Staphylococcus aureus assessed as reduction in bacterial growth at 16 microg/ml measured for 2 hrs. Format: functional. As to conditions: dose 16 µg/ml.
In another data set the test system is Pseudomonas syringae. Put plainly: Antibacterial activity against Pseudomonas syringae pv. actinidiae assessed as bacterial growth inhibition. Format: functional.
In another data set the test system is PC-12. Put plainly: Cytotoxicity against rat PC12 cells assessed as inhibition of cell growth at 20 to 50 microg/ml measured for 24 hrs by MTT assay. In kind it is toxicity, cell-based. The following applies: pc-12, 24 h, dose 20-50 µg/ml.
For data set [14], the system named is Staphylococcus aureus. Nature of the data set: Antibacterial activity against methicillin resistant Staphylococcus aureus assessed as reduction in bacterial growth at 8 microg/ml measured for 2 hrs. The following applies: dose 8 µg/ml. In kind it is functional.
A further data set deals with BV-2. Put plainly: Cytotoxicity against mouse BV-2 cells assessed as inhibition of cell growth at 20 to 50 microg/ml measured for 24 hrs by MTT assay. In kind it is toxicity, cell-based. The following applies: bv-2, 24 h, dose 20-50 µg/ml.
The subject of another data set is Ralstonia solanacearum. Put plainly: Antibacterial activity against Ralstonia solanacearum assessed as bacterial growth inhibition. In kind it is functional.
Data set [15] concerns Staphylococcus aureus. Put plainly: Drug resistance against Staphylococcus aureus assessed as fold increase in MIC measured after 19 passaging for 19 days. Format: functional. The following applies: time 19 day.
For data set [16], the system named is Staphylococcus aureus. Nature of the data set: Antibacterial activity against methicillin resistant Staphylococcus aureus assessed as reduction in bacterial growth at 2 times MIC measured at 24 hrs by time kill assay. In kind it is functional. Also on record: scale not given: the % may be the effect or the level left.
For data set [17], the system named is Staphylococcus aureus. Nature of the data set: Antibacterial activity against methicillin resistant Staphylococcus aureus assessed as reduction in bacterial growth at 4 times MIC measured at 24 hrs by time kill assay. Further details: scale not given: the % may be the effect or the level left. In kind it is functional.

Sequence of Histone deacetylase 1 (Q13547 whole entry, the tested form may be a part): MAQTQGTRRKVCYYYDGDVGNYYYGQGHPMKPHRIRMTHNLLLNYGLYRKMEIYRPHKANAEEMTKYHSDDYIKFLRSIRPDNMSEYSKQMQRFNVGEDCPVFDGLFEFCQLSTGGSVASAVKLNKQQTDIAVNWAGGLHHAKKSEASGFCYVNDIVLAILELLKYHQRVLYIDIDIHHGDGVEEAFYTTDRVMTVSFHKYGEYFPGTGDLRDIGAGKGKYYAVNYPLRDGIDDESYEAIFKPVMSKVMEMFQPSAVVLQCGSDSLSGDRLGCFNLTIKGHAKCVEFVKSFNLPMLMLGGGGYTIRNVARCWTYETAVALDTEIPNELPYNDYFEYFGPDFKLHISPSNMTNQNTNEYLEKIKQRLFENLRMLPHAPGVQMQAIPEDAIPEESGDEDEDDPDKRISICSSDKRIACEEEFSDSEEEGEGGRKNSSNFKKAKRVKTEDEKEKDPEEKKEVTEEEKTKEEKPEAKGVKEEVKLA

On to `O=C1CN(Cc2ccc(C(=O)NO)cc2)C(=O)[C@H](Cc2c[nH]c3ccccc23)N1`, for which, at Histone deacetylase 1, the IC50 stood at 0.405 µM.

With `CO[C@H]1/C=C/O[C@@]2(C)Oc3c(C)c(O)c4c(O)c(c(/C=N/N5CCN(C)CC5)c(O)c4c3C2=O)NC(=O)/C(C)=C\C=C\[C@H](C)[C@H](O)[C@@H](C)[C@@H](O)[C@@H](C)[C@H](OC(C)=O)[C@@H]1C` [RIFAMPIN], the Activity with Staphylococcus aureus [1] was 99.9%. In addition, the MIC with Staphylococcus aureus [2] came to 0.25 µg/mL (≈ 0.304 µM); with Staphylococcus aureus [3], 0.25 µg/mL (≈ 0.304 µM); in the data set on Escherichia coli [7], 4 µg/mL (≈ 4.86 µM). Also, the MBC in the data set on Staphylococcus aureus [4] worked out at 1 µg/mL (≈ 1.22 µM); in the data set with Staphylococcus aureus [9] it was 2 µg/mL (≈ 2.43 µM); in the data set on Escherichia coli [10], 8 µg/mL (≈ 9.72 µM). For the same compound, the PAE in the data set on Staphylococcus aureus [5] worked out at 3.45 h; with Staphylococcus aureus [6], 1.8 h. For the same compound, the result in the data set on Staphylococcus aureus [8] and with Staphylococcus aureus [11] was Active.

`O=C(O)c1cn(C2CC2)c2cc(N3CCNCC3)c(F)cc2c1=O` [CIPROFLOXACIN]: the Activity with Staphylococcus aureus [1] is listed as 99.9%. Also, the MIC in the data set on Staphylococcus aureus [2] and in the data set with Staphylococcus aureus [3] was 0.5 µg/mL (≈ 1.51 µM) each time. For the same compound, the MBC in the data set with Staphylococcus aureus [4] was found to be 2 µg/mL (≈ 6.04 µM); with Escherichia coli [10], 1 µg/mL (≈ 3.02 µM). In addition, the figures for the PAE in the data set on Staphylococcus aureus [5] and in the data set on Staphylococcus aureus [12] were 1.22 h and 1.58 h, respectively. Besides, the outcome with Staphylococcus aureus [8] and in the data set with Staphylococcus aureus [11] was Active.

Regarding `Cn1cc(CN2CCN(Cc3ccc(Cl)cc3Cl)CC2)c2cc(Cl)ccc21`, the MIC in the data set with Bacillus cereus worked out at 4 µg/mL (≈ 9.46 µM); with Staphylococcus aureus [2], 4 µg/mL (≈ 9.46 µM); in the data set with Staphylococcus aureus [3], 4 µg/mL (≈ 9.46 µM); in the data set on Pseudomonas syringae, 8 µg/mL (≈ 18.9 µM); in the data set with Escherichia coli [7], 16 µg/mL (≈ 37.8 µM); with Ralstonia solanacearum it was 8 µg/mL (≈ 18.9 µM). In addition, the MBC was 8 µg/mL (≈ 18.9 µM) in the data set with Staphylococcus aureus [4], 8 µg/mL (≈ 18.9 µM) in the data set on Staphylococcus aureus [9] and 16 µg/mL (≈ 37.8 µM) in the data set with Escherichia coli [10]. Also, the PAE with Staphylococcus aureus [13] was 2.21 h; in the data set with Staphylococcus aureus [14], 1.6 h. Moreover, the Activity result in the data set with PC-12 and with BV-2 was “Non-Toxic” each time. Besides, the result in the data set on Staphylococcus aureus [8] and with Staphylococcus aureus [11] was Active. Moreover, the “fold change (FC)” value with Staphylococcus aureus [15] was below 4.

Turning to `Clc1ccc(CN2CCN(Cc3c[nH]c4ccc(Br)cc34)CC2)c(Cl)c1`, the Activity with Staphylococcus aureus [16] is 99.5%; in the data set on PC-12, “Non-Toxic”; in the data set on Staphylococcus aureus [17], 99.9%; in the data set on BV-2, “Non-Toxic”. Moreover, the MIC came out at 4 µg/mL (≈ 8.83 µM) with Bacillus cereus; 4 µg/mL (≈ 8.83 µM) in the data set on Staphylococcus aureus [2]; 4 µg/mL (≈ 8.83 µM) with Staphylococcus aureus [3]; 16 µg/mL (≈ 35.3 µM) with Pseudomonas syringae; 16 µg/mL (≈ 35.3 µM) in the data set with Escherichia coli [7]; 8 µg/mL (≈ 17.7 µM) in the data set with Ralstonia solanacearum. The MBC with Staphylococcus aureus [4] is 4 µg/mL (≈ 8.83 µM); in the data set on Staphylococcus aureus [9] it was 8 µg/mL (≈ 17.7 µM); in the data set with Escherichia coli [10], 16 µg/mL (≈ 35.3 µM). Moreover, the PAE stood at 2.91 h with Staphylococcus aureus [13] and 1.62 h in the data set with Staphylococcus aureus [14]. In addition, in the data set with Staphylococcus aureus [15], the “fold change (FC)” value is below 4.
